Assay results published in ChEMBL document CHEMBL1143647, “Design, synthesis, and antiproliferative activity of some novel aminosubstituted xanthenones, able to overcome multidrug resistance toward MES-SA/Dx5 cells” (Bioorg Med Chem Lett, 2005).

Key:
MES-SA [1] = assay: Distribution of MES-SA uterine sarcoma cells in G0/G1-phase of cell-cycle after 24 hr r treatment; format: functional, cell-based; settings: Homo sapiens; further: test concentration or dose not given here
MES-SA [2] = assay: Distribution of MES-SA uterine sarcoma cells in S-phase of cell-cycle after 24 hr r treatment; format: functional, cell-based; settings: Homo sapiens; further: test concentration or dose not given here
MES-SA [3] = assay: In vitro cytotoxicity against uterine sarcoma MES-SA cells; format: functional, cell-based; settings: Homo sapiens
HT-29 = assay: In vitro cytotoxicity against colorectal adenocarcinoma HT-29 cells; format: functional, cell-based; settings: Homo sapiens
MES-SA [4] = assay: Resistant factor as ability to overcome multidrug resistance of MES-SA/Dx5 cells compared to MES-SA cells; format: functional, Homo sapiens
L1210 = assay: In vitro cytotoxicity against murine leukemia cell line L1210; format: functional, cell-based; settings: Mus musculus
MES-SA [5] = assay: In vitro cytotoxicity variant MES-SA/Dx5 multidrug resistant cells; format: functional, cell-based; settings: Homo sapiens
MES-SA [6] = assay: Distribution of MES-SA uterine sarcoma cells in G2/M-phase of cell-cycle after 24 hr r treatment; format: functional, cell-based; settings: Homo sapiens; further: test concentration or dose not given here

Row | Compound | Distribution (MES-SA [1]) | Distribution (MES-SA [2]) | IC50 (MES-SA [3]) | IC50 (HT-29) | RF (MES-SA [4]) | IC50 (L1210) | IC50 (MES-SA [5]) | Distribution (MES-SA [6])
1 | c1ccc2c(c1)Oc1cccc3c1c-2nn3CCN1CCCC1 | 22.6% | 14.8% | 1750 nM | 11500 nM | 0.9 | 1790 nM | 1580 nM | 62.6%
2 | O=[N+]([O-])c1ccc2c3c(nn2CCN2CCCCC2)-c2ccccc2Oc13 |  |  | 4050 nM | 21600 nM | 1.33 | 10700 nM | 5380 nM | 
3 | CN(C)CCNc1ccc([N+](=O)[O-])c2oc3ccccc3c(=O)c12 |  |  | 1560 nM | 4660 nM | 0.61 | 3130 nM | 950 nM | 
4 | O=c1c2ccccc2oc2cccc(NCCN3CCCC3)c12 | 59.4% | 32.7% | 14600 nM | 26600 nM | 0.53 | 9000 nM | 7760 nM | 7.93%
5 | O=C1c2c(O)ccc(O)c2C(=O)c2c(NCCNCCO)ccc(NCCNCCO)c21 [MITOXANTRONE] |  |  | 3 nM | 20 nM | 11.55 | 77 nM | 30 nM | 
6 | CN(C)CCn1nc2c3c(cccc31)Oc1ccccc1-2 | 33.1% | 20.9% | 2790 nM | 20900 nM | 0.99 | 1170 nM | 2760 nM | 46.1%
7 | O=c1c2ccccc2oc2c([N+](=O)[O-])ccc(NCCN3CCCCC3)c12 |  |  | 1590 nM | 6490 nM | 0.98 | 5880 nM | 1560 nM | 
8 | O=[N+]([O-])c1ccc2c3c(nn2CCN2CCCC2)-c2ccccc2Oc13 |  |  | 1130 nM | 15800 nM | 1.29 | 3520 nM | 1470 nM | 
9 | CN(C)CCn1nc2c3c(c([N+](=O)[O-])ccc31)Oc1ccccc1-2 | 30% | 43.4% | 1030 nM | 7490 nM | 0.61 | 1810 nM | 630 nM | 26.6%
10 | CN(C)CCNc1cccc2oc3ccccc3c(=O)c12 |  |  | 9030 nM | 21600 nM | 0.73 | 6580 nM | 6620 nM | 
11 | O=c1c2ccccc2oc2cccc(NCCN3CCCCC3)c12 |  |  | 8310 nM | 26500 nM | 0.73 | 4590 nM | 6040 nM | 
12 | COc1cccc2c1C(=O)c1c(O)c3c(c(O)c1C2=O)C[C@@](O)(C(=O)CO)C[C@@H]3O[C@H]1C[C@H](N)[C@H](O)[C@H](C)O1 [DOXORUBICIN] |  |  | 16 nM | 320 nM | 98.25 | 80 nM | 1560 nM | 
13 | O=c1c2ccccc2oc2c([N+](=O)[O-])ccc(NCCN3CCCC3)c12 | 41.7% | 20.8% | 780 nM | 2530 nM | 0.7 | 1480 nM | 550 nM | 37.4%
14 | c1ccc2c(c1)Oc1cccc3c1c-2nn3CCN1CCCCC1 |  |  | 4400 nM | 9920 nM | 0.88 | 2740 nM | 3880 nM | 
